This is an account of results in publication PMC9861858, “Stereoselective Synthesis and Antiproliferative Activities of Tetrafunctional Diterpene Steviol Derivatives” (International Journal of Molecular Sciences, 2023).

Converted amounts (≈) assume the structure as drawn.

Data set [1] concerns SiHa cells. The data set can be described thus: MTT antiproliferative assay, SiHa. The data set is classed as cell-based, human. The following applies: Homo sapiens, SiHa, 72 h, values <20% considered negligible, read-out: Growth inhibition (%) ± SEM, SiHa. The gist of the method: (§1)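 MTT, 72 h exposure; test conc. 10 μM and 30 μM; 5000 cells/well, o/n pre-incubation; EMEM/10% FBS, 37 °C, 5% CO2; A545 nm readout.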
On the technique in general: Tetrazolium assays rely on reduction of a dye to a coloured formazan, in cell work by metabolically active cells.

The test system of data set [2] is NIH/3T3 fibroblasts. The data set can be described thus: MTT assay on fibroblasts (selectivity). The data set is classed as cell-based, murine. The settings on record: Mus musculus, 72 h, values <20% considered negligible, read-out: Growth inhibition (%) ± SEM, NIH/3T3; for inhibition at 10 µM: NIH3T3, 10 μM; for inhibition at 30 µM: NIH3T3, 30 μM. The gist of the method: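 Absorbance at 545 nm of DMSO-solubilised formazan, formed during a 4 h MTT incubation, gave growth inhibition after 72 h compound treatment at two concentrations, 10 and 30 μM. Seeding was 5000 cells per well with overnight attachment; medium was EMEM plus 10% fetal bovine serum.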

Data set [3] can be described thus: Intestinal-specific parallel artificial membrane permeability assay (PAMPA-GI). The data set is classed as in vitro ADME. The settings on record: gradient pH system (pH donor 6.5 → pH acceptor 7.4) after 4 h, at 37 °C; mean ± S.E.M, n = 3. The method, boiled down:
(§2)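 Kinetic solubility: filtrates quantified by HPLC-DAD-MS against 5–500 μM calibration, target concentration 500 μM. PAMPA-GI: pH 6.5 phosphate donor, pH 7.4 PBS/5% DMSO acceptor, phosphatidylcholine/cholesterol 2:1 in dodecane membrane, 4 h at 37 °C; Pe and membrane retention calculated from HPLC-DAD-MS concentrations.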
Background: PAMPA measures passive passage across an artificial lipid membrane.

Data set [4] concerns human cancer cell lines (HeLa, SiHa, A2780, MCF-7 and MDA-MB-231). The data set can be described thus: MTT antiproliferative assay, whole cancer cell panel. In kind it is cell-based. The settings on record: 10 and 30 μM. As for the experimental part: The in vitro antiproliferative activities of the synthesised aminotriols 5–18 against a panel of different human cancer cell lines of gynecological origin, including cervical (SiHA and HeLa), breast (MCF7 and MDA-MB-231), ovary (A2780) cancers and NIH/3T3 healthy fibroblasts, were assayed by the MTT method. Cisplatin, a clinically applied anticancer agent was used as a reference compound, and the results are summarised in Figure 3 and Table S1 in the Supplementary Materials.
The growth-inhibitory effects of the presented terpenes were determined by a standard MTT [3-(4,5-dimethylthiazol2-yl)-2,5-diphenyltetrazolium bromide] assay against […] human cancer cell lines (cervical cancer HeLa and SiHa cell lines, breast cancer MCF-7 and MDA-MB-231 and ovarian cancer A2780). Murine embryonal fibroblast cells (NIH/3T3) were used to determine selectivity. All cell lines were purchased from the European Collection of Cell Cultures (Salisbury, UK). The cells were cultivated in Eagle’s minimal essential medium supplemented with 10% fetal bovine serum, 1% non-essential amino acids, and 1% Antibiotic-Antimycotic complex (penicillin, streptomycin, amphotericin B) at 37 °C in a humidified atmosphere containing 5% CO2. All media and supplements were purchased from Lonza Group Ltd. (Basel, Switzerland). Cancer cells were seeded into 96-well plates (5000 cells/well) after an overnight incubation, and the test compounds were added at two different concentrations (10 μM and 30 μM) and incubated for another 72 h under cell-culturing conditions. Finally, 20 μL of a 5 mg/mL MTT solution was added to each well, and the contents were incubated for a further 4 h. The medium was removed, and the precipitated formazan crystals were dissolved in DMSO by shaking at 37 °C for 60 min. The absorbance was measured at 545 nm by using a microplate reader (SPECTROStar Nano, BMG Labtech, Offenburg, Germany). Clinically utilised anticancer agent cisplatin (Ebewe GmbH, Unterach, Austria) was included as a reference molecule. Calculations were performed using the GraphPad Prism 9 software (GraphPad Software Inc., San Diego, CA, USA).

Data set [5] can be described thus: Kinetic aqueous solubility. In kind it is physicochemical. The settings on record: phosphate buffered saline with 5% DMSO, aqueous with cosolvent or surfactant or cyclodextrin, kinetic from dmso stock; after 2 h, at 37 °C in PBS, pH 7.4, 5% DMSO; target concentration 500 μM; mean ± S.E.M, n = 3. The method, boiled down:
as §2

Data set [6] has as its system MDA-MB-231 cells. The data set can be described thus: MTT antiproliferative assay, MDA-MB-231. The settings on record: Homo sapiens, 72 h, values <20% considered negligible, read-out: Growth inhibition (%) ± SEM, MDA-MB-231; for inhibition at 10 µM: MDA-MB-231, 10 μM; for inhibition at 30 µM: MDA-MB-231, 30 μM. The data set is classed as cell-based, human. The method, boiled down:
as §1

The subject of data set [7] is A2780 cells. The data set can be described thus: MTT antiproliferative assay, A2780. The data set is classed as cell-based, human. The settings on record: Homo sapiens, 72 h, values <20% considered negligible, read-out: Growth inhibition (%) ± SEM, A2780; for inhibition at 10 µM: A2780, 10 μM; for inhibition at 30 µM: A2780, 30 μM. The gist of the method: as §1
The test system of data set [8] is MCF-7 cells. The data set can be described thus: MTT antiproliferative assay, MCF-7. In kind it is cell-based, human. The following applies: Homo sapiens, 72 h, values <20% considered negligible, read-out: Growth inhibition (%) ± SEM, MCF-7; for inhibition at 10 µM: MCF7, 10 μM; for inhibition at 30 µM: MCF7, 30 μM. The gist of the method:
as §1

For data set [9], the system named is HeLa cells. The data set can be described thus: MTT antiproliferative assay, HeLa. In kind it is cell-based, human. The following applies: for inhibition at 10 µM / inhibition at 30 µM: Homo sapiens, HeLa, 72 h, values <20% considered negligible, read-out: Growth inhibition (%) ± SEM, HeLa. The gist of the method: as §1

As usually defined, the melting point is the temperature of the solid-liquid transition. For orientation: solubility (kinetic) means the concentration staying in solution when a stock, usually in DMSO, is diluted into the medium. As for `COC(=O)[C@]1(C)CCC[C@@]2(C)C3CC[C@]4(O)C[C@@]3(CCC21)[C@@H](O)[C@]4(O)CN` (stereo partly drawn) [Compound 17, (4R,6aR,7R,8R,9S,11bS)-Methyl 8-(Aminomethyl)-7,8,9-trihydroxy-4,11b-dimethyltetradecahydro-6a,9-methanocyclohepta[a]naphthalene-4-carboxylate], the melting point was 152 to 155 °C. Moreover, in [1], the inhibition at 10 µM was < 20% and the inhibition at 30 µM was < 20%. In addition, in data set [2], the inhibition at 10 µM was < 20% and the inhibition at 30 µM was < 20%. For the same compound, the “PAMPA-GI MR (membrane retention)” value in data set [3] came to 1.5 ± 0.3%. Moreover, in data set [4], the “Antiproliferative activity on the cancer cell panel, in words” value is given as “any notable effect was not detectable”. In [5], the solubility (kinetic) at 2 h is 535 ± 38.4 µM (≈ 204 µg/mL). For the same compound, in [6], the inhibition at 10 µM was < 20% and the inhibition at 30 µM was 30.4 ± 2.04%. Further, in data set [7], the inhibition at 10 µM is < 20% and the inhibition at 30 µM is < 20%. Moreover, in data set [8], the inhibition at 10 µM was < 20% and the inhibition at 30 µM was < 20%. Further, in data set [9], the inhibition at 10 µM is < 20% and the inhibition at 30 µM turned out to be 28.9 ± 2.72%.

As for `COC(=O)[C@]1(C)CCC[C@@]2(C)C3CC[C@]4(O)C[C@@]3(CCC21)[C@@H](O)[C@]41CO1` (stereo partly drawn) [Compound 4b, (2’R,4R,6aR,7R,9S,11bS)-Methyl 7,9-Dihydroxy-4,11b-dimethyldodecahydro-1H-spiro[6a,9-methanocyclohepta[a]naphthalene-8,2’-oxirane]-4-carboxylate], the melting point fell in the range of 182 to 185 °C. Further, in data set [1], the inhibition at 10 µM is < 20% and the inhibition at 30 µM was 58 ± 2.66%. Further, in data set [2], the inhibition at 10 µM is < 20% and the inhibition at 30 µM was found to be 37.2 ± 0.71%. The “Antiproliferative activity on the cancer cell panel, in words” value in [4] is on record as “significant activity in higher concentrations only”. In data set [6], the inhibition at 10 µM was < 20% and the inhibition at 30 µM was found to be 36.7 ± 1.62%. Further, in [7], the inhibition at 10 µM was < 20% and the inhibition at 30 µM worked out at 62 ± 0.78%. For the same compound, in data set [8], the inhibition at 10 µM was < 20% and the inhibition at 30 µM turned out to be 53.1 ± 2.2%. The “Antiproliferative effect on HeLa, in words” value in data set [9] (10 and 30 μM) was “potent inhibition”. For the same compound, in data set [9], the inhibition at 10 µM is 30.6 ± 1.09% and the inhibition at 30 µM came out at 95.35 ± 0.11%.
